Measured values reported in patent US11987804B2, “Rapamycin resistant cells” (Seattle Children's Hospital, priority 2018, dated 2024).

Assays:
CD4+ T cells [1] = test: Selective expansion of DISC/HA-FOXP3 edited Treg cells (flow cytometry for HA tag and FOXP3); format: cell-based, human; settings: 50 ng/mL IL-2, 10 nM Rapamycin or 100 nM AP21967
From the text: This Example illustrates the use of gene editing technology to knock-in a construct encoding the DISC and a promoter upstream of the endogenous FOXP3 (Forkhead box P3) locus in CD4+ T cells. […] In brief, a CRISPR/CAS9 ribonucleoprotein containing a guide RNA (gRNA) specific for a locus 5′ of exon 1 of FOXP3 was used in combination with an adeno-associated virus 6 (AAV6) donor template for FOXP3 gene editing The gRNA included a spacer having the sequence of SE ID NO:58. An ectopic MND promoter was introduced to drive DISC expression upstream of endogenous FOXP3. Expression of FOXP3 was designed to be in-frame with an N-terminal hemagglutinin (HA) epitope tag and nuclear localization sequence to generate a chimeric protein.

[2] = tested on: primary human CD4+ T cells; test: Three-phase expansion protocol for μDISC edTreg (flow cytometry HA/FOXP3, cell counts); format: cell-based; settings: for Day-3 flow cytometry Q4 / Day-10 flow cytometry Q3 / Day-10 flow cytometry Q4 / Day-15 flow cytometry Q4: Expansion Phase 0 additive 50 μg/mL IL-2, 10 nM rapamycin or 100 nM AP21967; for Day-3 flow cytometry Q1 / Day-10 flow cytometry Q1 / Day-15 flow cytometry Q1: Q1 = HA- FOXP3+; for Day-10 flow cytometry Q3 / Day-10 flow cytometry Q4 / Day-10 flow cytometry Q1: after Expansion Phase 1; for Day-15 flow cytometry Q4 / Day-15 flow cytometry Q3 / Day-15 flow cytometry Q1: after Expansion Phase 2
Procedure: Recovered cells after Expansion Phase 0 were then transferred to the G-Rex flask and expanded in rapamycin (Expansion Phase 1; Days 3-10) to allow DISC edTreg enrichment, followed by addition of anti-CD3/CD28 beads (Expansion Phase 2; Days 10-15). The same AAV construct as shown in FIG. 13A was used in this experiment.
After Expansion Phase 1 (Day 10), successfully edited cells were assessed by flow cytometry.

CD4+ T cells [3] = test: Regulatory T cell marker phenotype of DISC-expressing edited Treg cells; format: cell-based, human; settings: IL-2 50 ng/mL, rapamycin 10 nM or AP21967 100 nM
μDISC GFP edTreg = test: In vivo expansion of μDISC GFP edTreg by rapamycin in humanized mouse model; design: species or system NOD-scid-IL2RgNULL (NSG) mice; settings: for CD25+ GFP+ edTreg cells / CD25− GFP+ edTreg cells / CD127+ GFP+ edTreg cells / CD127− GFP+ edTreg cells: peripheral blood seven days post-transfer, rapamycin 0.1 mg/kg i.p. every other day, representative mouse
Procedure: This Example describes experiments performed to test the capacity of edTreg cells expressing a μDISC construct to be expanded in vivo by rapamycin treatment. […] There are also conditions under which it is not desirable to expand Tregs, for example, in some cases of infection. Therefore, a useful feature of engineered cells provided herein having Treg features is the ability to exert control on expansion in vivo. Experiments were carried out to determine whether rapamycin could increase the number of μDISC edTregs in vivo using a humanized mouse model, which included human cells transferred into immune-incompetent NOD-scid-IL2RgNULL (NSG) mice. For these experiments, cells were edited using an AAV donor to drive cis-linked expression of the μDISC and endogenous FOXP3 from the MND promoter. This AAV donor template incorporates a GFP fusion protein at the N-terminal of endogenous FOXP3. The GFP-labeled FOXP3 fusion protein was used to facilitate the ability to detect gene-edited cells within the in vivo cell samples. […] The beads were then removed at Day −1. […] In the three-phase expansion protocol used in this experiment, the timing of Expansion Phase 0 flow cytometry was on Day 2. Recovered cells after Expansion Phase 0 were then transferred to the G-rex® flask and expanded in the presence of 10 nM rapamycin to select edited cells (Expansion Phase 1; Days 3-9) and to allow DISC edTreg enrichment, followed by flow cytometry and addition of anti-CD3/CD28 beads (Expansion Phase 2; Days 9-16; in the presence of 10 nM rapamycin). Flow cytometry was performed at Days 2, 9, 12, and 16 to monitor edited GFP+FOXP3+ cell expansion.
NSG mice were pre-treated with rapamycin in order to saturate rapamycin binding proteins and provide rapamycin in serum.
The μDISC GFP edTregs (or mock-edited cells) were then injected i.v. according to the following general procedure. Starting from Day −4, intraperitoneal (i.p.) injection of rapamycin 0.1 mg/kg was carried out every other day until Day 21. At Day 0, irradiation was performed and μDISC edTreg was i.v. injected. Peripheral blood samples were collected to either test for rapamycin levels (Day 2) or for flow cytometry (Days 7, 14, 21, and 28) to track the phenotype and number of transferred human T cells including GFP+ edTreg cells.
To illustrates expansion of μDISC GFP edTreg in rapamycin treated vs. vehicle, flow cytometry results from peripheral blood seven days post-transfer into NSG are shown in Table 11 below (Gate: live, hCD45+, hCD4+), where human T cell markers and GFP+ are shown for a representative mouse from each cohort.

[4] = Expansion Phase 0 additive, 10 nM rapamycin or 100 nM AP21967
[5] = peripheral blood Day 7 and Day 14, rapamycin treated vs. vehicle

| Structure (SMILES) | percentage of double positive cells (expressing HA-FOXP3), DISC/HA-FOXP3 (CD4+ T cells [1]; 7 day post-treatment) [%] | percentage of double positive cells (expressing HA-FOXP3), Mock (CD4+ T cells [1]; 7 day post-treatment) [%] | percentage of double positive cells (expressing HA-FOXP3), DISC/HA-FOXP3 (CD4+ T cells [1]; 15 day post-treatment) [%] | Day-3 flow cytometry Q4 [2] [%] | Day-3 flow cytometry Q3 [2, 4] [%] | Day-3 flow cytometry Q1 [2, 4] [%] | Day-10 flow cytometry Q3 [2] [%] | Day-10 flow cytometry Q4 [2] [%] | Day-10 flow cytometry Q1 [2, 4] [%] | Day-15 flow cytometry Q4 [2] [%] | Day-15 flow cytometry Q3 [2, 4] [%] | Day-15 flow cytometry Q1 [2, 4] [%] | CD25+ FOXP3+ (CD4+ T cells [3]) [%] | CD25+ FOXP3− (CD4+ T cells [3]) [%] | CD 127+ FOXP3+ (CD4+ T cells [3]) [%] | CD 127+ FOXP3− (CD4+ T cells [3]) [%] | CTLA4+ FOXP3+ (CD4+ T cells [3]) [%] | CTLA4+ FOXP3− (CD4+ T cells [3]) [%] | ICOS+ FOXP3+ (CD4+ T cells [3]) [%] | ICOS+ FOXP3− (CD4+ T cells [3]) [%] | other results |
| --- | --- | --- | --- | --- | --- | --- | --- | --- | --- | --- | --- | --- | --- | --- | --- | --- | --- | --- | --- | --- | --- |
| CO[C@H]1[C@@H](O)[C@H](C)C[C@H](C)/C=C/C=C/C=C(\C)[C@@H](c2c[nH]c3c(C)cccc23)C[C@@H]2CC[C@@H](C)[C@@](O)(O2)C(=O)C(=O)N2CCCC[C@H]2C(=O)O[C@H]([C@H](C)C[C@@H]2CC[C@@H](O)[C@H](OC)C2)C[C@H](O)[C@H](C)/C=C(\C)[C@H]1O [AP21967, C-16-(S)-7-methylindolerapamycin] | 45.7 | 0.033 | 82.1 | 86.00 | 1.74 | 0.39 | 5.54 | 13.3 | 0.59 | 10.7 | 4.93 | 0.33 | 22.5 | 20.4 | 1.63 | 40.3 | 13.6 | 30.8 | 36.8 | 2.99 | Day-3 flow cytometry Q2 ([2]; Q2 = HA+ FOXP3+ successfully edited cells, Expansion Phase 0 additive, 10 nM rapamycin or 100 nM AP21967): 11.90%; LAG3+ FOXP3+ (CD4+ T cells [3]): 8.81%; LAG3+ FOXP3− (CD4+ T cells [3]): 31.5% |
| CO[C@H]1C[C@@H]2CC[C@@H](C)[C@@](O)(O2)C(=O)C(=O)N2CCCC[C@H]2C(=O)O[C@H]([C@H](C)C[C@@H]2CC[C@@H](O)[C@H](OC)C2)CC(=O)[C@H](C)/C=C(\C)[C@@H](O)[C@@H](OC)C(=O)[C@H](C)C[C@H](C)/C=C/C=C/C=C/1C [Rapamycin, (3S,6R,7E,9R,10R,12R,14S,15E,17E,19E,21S,23S,26R,27R,34aS)-9,10,12,13,14,21,22,23,24,25,26,27,32,33,34,34a-hexadecahydro-9,27-dihydroxy-3-[(1R)-2-[(1S,3R,4R)-4-hydroxy-3-methoxycyclohexyl]-1-methylethyl]-10,21-dimethoxy-6,8,12,14,20,26-hexamethyl-23,27-epoxy-3H-pyrido[2,1-c][1,4] oxaazacyclohentriacontine-1,5,11,28,29 (4H,6H,31H)-pentone] | 47.6 | 0.022 | 85.6 | 91.70 | 1.48 | 0.38 | 9.31 | 20.1 | 0.44 | 15.7 | 7.56 | 1.08 | 28.9 | 14.5 | 1.47 | 40.8 | 15.5 | 29.4 | 38.2 | 2.38 | CD25+ GFP+ edTreg cells (μDISC GFP edTreg; No Radiation): 79.9%; CD25− GFP+ edTreg cells (μDISC GFP edTreg; No Radiation): 8.37%; CD127+ GFP+ edTreg cells (μDISC GFP edTreg; No Radiation): 0.57; CD127− GFP+ edTreg cells (μDISC GFP edTreg; No Radiation): 88.2; CD25+ GFP+ edTreg cells (μDISC GFP edTreg; Radiation (200 Gy), gate live, hCD45+, hCD4+): 82.6%; CD25− GFP+ edTreg cells (μDISC GFP edTreg; Radiation (200 Gy)): 5.52%; CD127− GFP+ edTreg cells (μDISC GFP edTreg; Radiation (200 Gy)): 87.6; CD127+ GFP+ edTreg cells (μDISC GFP edTreg; Radiation): 0.50; number of GFP+ cells in serum sample (μDISC GFP edTreg; [5]): higher; percentage of GFP+ cells (μDISC GFP edTreg; [5]): higher; levels of μDISC GFP edTreg in the peripheral blood (FIG. 17) (μDISC GFP edTreg; tracked weekly for four weeks, rapamycin treated vs. untreated mice): higher levels of μDISC GFP edTreg at each time point, peaking between two and three weeks after cell transfer; LAG3+ FOXP3+ (CD4+ T cells [3]): 7.86%; LAG3+ FOXP3− (CD4+ T cells [3]): 33.3% |
